According to PubChem BioAssay AID977618 (Broad Institute, 2014):
Several values for one entry are separate records, joined by “and”; a condition that tells them apart may be missing. Identical values can stand only once. Activity calls are given as the source filed them.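 The calls were made as follows: active = compounds lowering the cell ATP signal with fitted AC50 at most twice the top tested dose; inconclusive = flat fit between -70 and -30, or a poor fit; inactive = the rest.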

System: HEK293T viability, CellTiter-Glo ATP luminescence, 72 h
Assay: viability loss in HEK293T cells – cell-based, CellTiter-Glo luminescence, dry powder, set 16, cytotoxicity control, dose response (AID 977618)
Settings: not given
With Cc1cnc(NC(=O)c2cc(S(=O)(=O)N(CC(C)C)CC(C)C)ccc2N2CCCC2)s1 the AC50 was > 60 µM (inactive).

System: not listed separately
Assay: as above
Settings: HEK293T viability, CellTiter-Glo ATP luminescence, 72 h; at 30 µM (top of the series)
In the case of COc1ccc2nc(NC(=O)c3cc(S(=O)(=O)N(C)C)ccc3N3CCCC3)sc2c1, the activity change, negative = cytotoxicity is reported as -3.18% (inactive).
With Cc1ccccc1NC(=O)c1cc(S(=O)(=O)N(C)C)ccc1N1CCCC1 the activity change, negative = cytotoxicity was -9.68% (inactive).
For CN(C)CCCN(Cc1cc2ccccc2[nH]c1=O)C(=O)NCc1ccccc1, the activity change, negative = cytotoxicity was -7.51% (inactive).
With CN(C)S(=O)(=O)c1ccc(N2CCCC2)c(C(=O)Nc2ccncc2)c1 the activity change, negative = cytotoxicity was -8.58% (inactive).
For Cc1cnc(NC(=O)c2cc(S(=O)(=O)N3CCOCC3)ccc2N2CCCC2)s1, the activity change, negative = cytotoxicity was 9.35% (inactive).
In the case of CN(C)S(=O)(=O)c1ccc(N2CCCC2)c(C(=O)Nc2cccc(F)c2)c1, the activity change, negative = cytotoxicity is reported as -5.2% (inactive).
For Cc1cnc(NC(=O)c2cc(S(=O)(=O)N3CCCCC3)ccc2N2CCCC2)s1, the activity change, negative = cytotoxicity was 1.32% (inactive).
In the case of Cc1cnc(NC(=O)c2cc(S(=O)(=O)NCc3ccccc3)ccc2N2CCCC2)s1, the activity change, negative = cytotoxicity is reported as -10.3% (inactive).
With COc1ccc(NC(=O)c2cc(S(=O)(=O)N(C)C)ccc2N2CCCC2)cc1 the activity change, negative = cytotoxicity was -3.02% (inactive).
For CN(C)S(=O)(=O)c1ccc(N2CCCC2)c(C(=O)Nc2ccccc2)c1, the activity change, negative = cytotoxicity was -5.37% (inactive).
For Cc1cnc(NC(=O)c2cc(S(=O)(=O)N3CCNCC3)ccc2N2CCCC2)s1, the activity change, negative = cytotoxicity was -12.1% (inactive).
In the case of Cc1cnc(NC(=O)c2cc(S(=O)(=O)N(C)C)ccc2N2CCCCC2)s1, the activity change, negative = cytotoxicity is reported as -9.94% (inactive).
In the case of Cc1csc(NC(=O)c2cc(S(=O)(=O)N(C)C)ccc2N2CCCC2)n1, the activity change, negative = cytotoxicity is reported as -4.9% (inactive).
With Cc1cnc(NC(=O)c2cccc(S(=O)(=O)N(C)C)c2)s1 the activity change, negative = cytotoxicity was -1.48% (inactive).
For COc1ccc2sc(NC(=O)c3cc(S(=O)(=O)N(C)C)ccc3N3CCCC3)nc2c1, the activity change, negative = cytotoxicity was 1.94% (inactive).
In the case of CN(C)S(=O)(=O)c1ccc(N2CCCC2)c(C(=O)Nc2cccnc2)c1, the activity change, negative = cytotoxicity is reported as 3.26% (inactive).
With CN(C)S(=O)(=O)c1ccc(N2CCCC2)c(C(=O)Nc2ccccc2F)c1 the activity change, negative = cytotoxicity was -17.6% (inactive).
With CN(C)S(=O)(=O)c1ccc(N2CCCC2)c(C(=O)Nc2nc3ccccc3s2)c1 the activity change, negative = cytotoxicity was 8.82% (inactive).
For Cc1cnc(NC(=O)c2cc(S(=O)(=O)N(C)C)ccc2C2CCCC2)s1, the activity change, negative = cytotoxicity was -1.05% (inactive).
With Cc1cnc(NC(=O)c2cc(S(=O)(=O)N(C)C)ccc2N2CCNCC2)s1 the activity change, negative = cytotoxicity was -1.97% (inactive).
With Cc1nc(NC(=O)c2cc(S(=O)(=O)N(C)C)ccc2N2CCCC2)n[nH]1 the activity change, negative = cytotoxicity was -1.85% (inactive).
With Cc1cnc(NC(=O)c2cc(S(=O)(=O)N(C)C)ccc2N2CCCC2)s1 the activity change, negative = cytotoxicity was 8.71% (inactive) and 10.8% (inactive).
For Cc1cnc(NC(=O)c2cc(S(=O)(=O)N(C)C)ccc2N(C)C)s1, the activity change, negative = cytotoxicity was -10% (inactive).
With Cc1nnc(NC(=O)c2cc(S(=O)(=O)N(C)C)ccc2N2CCCC2)s1 the activity change, negative = cytotoxicity was -7.43% (inactive).
In the case of Cc1cnc(NC(=O)c2cc(S(=O)(=O)N(C)C)ccc2N2CCC2)s1, the activity change, negative = cytotoxicity is reported as -5.02% (inactive).
In the case of CCN(CC)S(=O)(=O)c1ccc(N2CCCC2)c(C(=O)Nc2ncc(C)s2)c1, the activity change, negative = cytotoxicity is reported as -2.95% (inactive).
In the case of CN(C)S(=O)(=O)c1ccc(N2CCCC2)c(C(=O)Nc2ccccc2Cl)c1, the activity change, negative = cytotoxicity is reported as -6.21% (inactive).
In the case of COc1cccc2sc(NC(=O)c3cc(S(=O)(=O)N(C)C)ccc3N3CCCC3)nc12, the activity change, negative = cytotoxicity is reported as -4.26% (inactive).
For COc1ccccc1NC(=O)c1cc(S(=O)(=O)N(C)C)ccc1N1CCCC1, the activity change, negative = cytotoxicity was -2.97% (inactive).
In the case of CN(C)S(=O)(=O)c1ccc(N2CCCC2)c(C(=O)NC2CCCCC2)c1, the activity change, negative = cytotoxicity is reported as -11.1% (inactive).
In the case of CN(C)CCCN(Cc1cc2ccccc2[nH]c1=O)C(=O)Nc1ccccc1, the activity change, negative = cytotoxicity is reported as -4.05% (inactive).
With CN(C)C(=O)c1cc(S(=O)(=O)N(C)C)ccc1N1CCCC1 the activity change, negative = cytotoxicity was 0.495% (inactive).
With Cc1cnc(NC(=O)c2cc(S(=O)(=O)N3CCCC3)ccc2N2CCCC2)s1 the activity change, negative = cytotoxicity was 16.8% (inactive).
For Cc1cnc(NC(=O)c2cc(S(=O)(=O)N(C)c3ccccc3)ccc2N2CCCC2)s1, the activity change, negative = cytotoxicity was 1.78% (inactive).
For CN(C)S(=O)(=O)c1ccc(N2CCCC2)c(C(=O)N2CCOCC2)c1, the activity change, negative = cytotoxicity was -15.1% (inactive).
For CN(C)S(=O)(=O)c1ccc(N2CCCC2)c(C(=O)Nc2nccs2)c1, the activity change, negative = cytotoxicity was -6.06% (inactive).
In the case of CN(C)S(=O)(=O)c1ccc(N2CCCC2)c(C(=O)Nc2ccc(Br)cc2)c1, the activity change, negative = cytotoxicity is reported as -1.97% (inactive).
With Cc1ccc(NC(=O)c2cc(S(=O)(=O)N(C)C)ccc2N2CCCC2)cc1 the activity change, negative = cytotoxicity was -11.3% (inactive).
In the case of CCN(CC)c1ccc(S(=O)(=O)N(C)C)cc1C(=O)Nc1ncc(C)s1, the activity change, negative = cytotoxicity is reported as -18.6% (inactive).
